Laboratory results published in patent US20020103082A1, “Adjuvant activity through modulation of animal and plant cell membrane transport” (Board of Regents, The University of Texas System, priority 2000, published 2002).
Read-outs that look alike come from different tables or passages of the source.

How the values were obtained:
[1] = tested on: wild-type yeast strain INVSC with plasmid pvt101-U; assay: Increasing yeast sensitivity to fungicide (filter disk zone of inhibition); assay type: cell-based, Saccharomyces cerevisiae; details: 48 hours
Experimental: Additional experiment were performed to test the ability of ecto-phosphatase inhibitors to increase the effectiveness of the commonly used fungicide chlorothalonil. Yeast was plated on media with or without an ecto-phosphatase inhibitor of Formula X where a paper filter disk soaked in the fungicide was added to the plate. After 48 hours, the zone of inhibition of yeast growth around the filter disk was calculated.
The wild-type yeast strain INVSC with plasmid pvt101-U (for selection on media lacking uracil) was used in all experiments and each experiment was performed in triplicate. Media used was made by combining YNB (Bio 101, Vista, Calif.), the drop out supplement CSM-URA (Bio 101, Vista, Calif.), and glucose in water. […]
Twenty μl of an overnight saturated culture of yeast was plated onto each plate, spread, and allowed to dry for 20 minutes. […] The zone of inhibition of yeast growth around the disk was assessed after 48 hours.
Plates with chlorothalonil disks indeed contained a zone of inhibition surrounding the disk. […] The zone of inhibition was calculated by measuring the radius from the center of the disk to the point of noticeable yeast growth (at least 10 measurements per plate), averaging the radii measurements, and using the average radius of the plates to calculate the circular area of the zone of inhibition.

[2] = tested on: acid phosphatase yeast mutant YMR4; assay: Salvage pathway experiments in yeast (turbidity); assay type: cell-based, Saccharomyces cerevisiae; details: added to media with cycloheximide; 72 hours
Experimental: All cell lines were grown in liquid media either containing drug (for the drug selected lines) or not containing drug (for the non-drug selected lines). When the cultures reached a turbidity of 1.00 as measured at a wavelength of 600 in a spectrophotometer (OD600=1.00), 10 μl of each culture was then removed and placed in either media with nothing added, 3 mM potassium phosphate; 3 mM adenosine; 9 mM potassium phosphate and 3 mM adenosine (for controls); potassium phosphate and cycloheximide; adenosine and cycloheximide; adenosine, cycloheximide, and potassium phosphate. Cell cultures were further grown for 72 hours, and their turbidity was determined by OD600 readings on a spectrophotometer. Growth of cell lines for nigericin experiments: Drug selected lines were removed from cycloheximide containing plates and placed in 5 ml liquid media containing 5 ng/ml cycloheximide. Cell cultures were allowed to grow until they reached an OD600 reading of 1.00, and then 10 μl from each culture was removed and transferred to culture tubes containing 5 ml of liquid media and 25 μg/ml nigericin. OD600 readings were recorded daily for a period of up to 72 hours to determine growth.

[3] = tested on: YMR4 yeast mutant deficient in two major extracellular phosphatases; assay: Yeast drug selection growth assay; assay type: cell-based, Saccharomyces cerevisiae
Experimental: (§1) Yeast were grown at 30 C under conditions of constant selection for uracil auxotrophy. YNB (BiolOl, Vista, Calif.) supplemented with CSM (uracil dropout) and 2% glucose was used to grow strains having pVT101 constructs. Cycloheximide (Sigma Chemical, St. Louis, Mo.) was added to liquid media or spread on solid media to achieve a final concentration of 500 ng/ml. Nigericin (Sigma Chemical, St. Louis, Mo.) was added to liquid media or spread on solid media to achieve a final concentration of 25 μg/ml. Yeast strains used in cycloheximide selection assays were always propagated in the presence of the cycloheximide on plates and then streaked onto new plates containing drug or no drug, such that induced resistance existed in each strain at the time of the start of the assay. For selection assays on plates, single colonies were streaked; for selection in liquid media 0.01 ml of saturated culture was added to fresh media containing the drug. The plates shown in figures were grown for 3-5 days before photographs were taken. Yeast selection assays in liquid media were quantitated by turbidity as measured by absorbance at OD600.

[4] = tested on: AtPGP-1 overexpressing (MDR OE) Arabidopsis thaliana plants; assay type: in vivo; details: AtPGP-1 overexpressing plants; cycloheximide 500 ng/ml alone or phosphatase inhibitor 1 mM alone; after 10-20 days
Experimental: (§2) Arabidopsis seeds were sown in a solid germination media containing MS salts (Sigma Chemical, St. Louis, Mo.), 2% sucrose, 0.8% agar, and vitamins (Valvekens, D. et al., […], Proc. Natl. Acad. Sci. USA 85:5536-5540). For selection assays, one of the following, or a combination of both, was added to media (cooled to less than 50° C. before adding) immediately prior to pouring into plates: cycloheximide at a final concentration of 500 ng/ml; α,β-methyleneadenosine 5′-diphosphate at a final concentration of 1 mM. Plant growth was measured by germination percentage after 10-20 days. All other materials and methods were iscussed above in Example 2.

[5] = tested on: wild-type Arabidopsis thaliana plants; assay: Arabidopsis germination selection assay; assay type: in vivo; details: cycloheximide 500 ng/ml alone or phosphatase inhibitor 1 mM alone, after 10-20 days
Experimental: as §2

[6] = tested on: Arabidopsis thaliana WS wild-type plants; assay: Increasing plant sensitivity to herbicides (adjuvant test); assay type: in vivo; details: surflan with compound of Formula II at 5 μg/ml versus surflan alone
Experimental: Arabidopsis thaliana WS wild-type plants were plated on germination media containing two commonly used herbicides, surflan and pendimethalin, in the presence and absence of an ecto-phosphatase inhibitor of Formula II and monitored for their growth in a 22° C. incubator under constant fluorescent illumination.
More specifically, germination media was prepared containing 20 μl/ml, 10 μl/ml, 2 μl/ml, 1 μl/ml, and 0.2 μl/ml of a surflan solution made at the manufacturer's recommended concentration. Compound of Formula II was added to a portion of the germination media at a final concentration of 5 μg/ml.
Arabidopsis thaliana WS wild-type seeds were surface sterilized in a 20% bleach solution for 20 minutes, washed three times in double distilled waster, and resuspended in 0.1% agarose solution. The seeds were then pipetted onto plates containing approximately 3 ml of germination media containing the various concentrations of surflan with and without compound of Formula II. All plates were placed in a 22° C. incubator under constant fluorescent illumination. Growth was assessed daily.

[7] = tested on: yeast cells (YMR4 and INVSC, with or without AtPGP-1); assay type: cell-based, Saccharomyces cerevisiae; details: 100 mM ATP, 48 hours
Experimental: To create drug resistant yeast strains, all four cell lines were grown up in the presence of 500 ng/ml of cycloheximide, and transferred to other cycloheximide containing plates after a period of four to six days. This transfer of cell lines and subculturing continued such that the yeast cells grew in the presence of cycloheximide for a period of at least a month.
Cells cultured in media alone: To create cell lines that had not been preselected for their ability to grow in drug, yeast strains were grown on plates containing YNB (Bio101, Vista, Calif.) without uracil (-URA) to maintain the presence of the vector (which supplies URA) without any drugs added.
Cells were transferred into 5 ml YNB -URA liquid media for turbidity measurements. All cell lines (both non-drug selected and drug-selected) were grown in media with the addition of either nothing, 500 ng/ml cycloheximide, 100 mM ATP, or 500 ng/ml cycloheximide and 100 mM ATP. Turbidity readings were taken after 48 hours.

[8] = tested on: wild-type yeast strain INVSC1; assay: Yeast drug selection growth assay; assay type: cell-based, Saccharomyces cerevisiae; details: cycloheximide 500 ng/ml
Experimental: as §1

Q: What does the source list for `N#Cc1c(Cl)c(Cl)c(Cl)c(C#N)c1Cl` [chlorothalonil]?
A: area of inhibition ([1]; chlorothalonil by itself): 0.35 in^2; average radius of inhibition ([1]; chlorothalonil disk, plates without ecto-phosphatase inhibitor): 0.33 in.

Q: `Nc1ncnc2c1ncn2[C@@H]1O[C@H](CO)[C@@H](O)[C@H]1O` [adenosine] was tested. Which “effect on growth of cells overexpressing AtPGP-1 in drug” value [2] did it give?
A: slightly inhibitory

Q: What about the “effect on resistance to cycloheximide” value [2] of the same compound?
A: did not enhance resistance

Q: Which results are given for `O=P(O)(O)O` [phosphate, potassium phosphate]?
A: effect on growth of cells overexpressing AtPGP-1 in drug [2]: slightly inhibitory; effect on resistance to cycloheximide [2]: did not enhance resistance

Q: How did the growth in drug ([3]; nigericin 25 μg/ml, YMR4 containing vector alone) turn out when `CO[C@@H]1C[C@@H](C[C@H]2CC[C@H](C)[C@H]([C@@H](C)C(=O)O)O2)O[C@]2(O[C@](C)([C@H]3CC[C@@](C)([C@@H]4O[C@@H]([C@H]5O[C@@](O)(CO)[C@H](C)C[C@@H]5C)C[C@@H]4C)O3)C[C@H]2C)[C@@H]1C` [nigericin] was run?
A: reduced growth

Q: Which germination rate [4] does the source give for `Nc1ncnc2c1ncn2[C@@H]1O[C@H](COP(=O)(O)CP(=O)(O)O)[C@@H](O)[C@H]1O` [α,β-methyleneadenosine 5′-diphosphate] here?
A: 83%

Q: And the germination rate [5]?
A: 90%

Q: With `Cc1cccc(NS(=O)(=O)c2ccc(-c3ccccc3)cc2)c1` [Formula II] as the compound, how does the “surflan concentration at which it is an equally effective weed killer” value [6] read?
A: five fold less concentration

Q: `Nc1ncnc2c1ncn2[C@@H]1O[C@H](COP(=O)(O)OP(=O)(O)OP(=O)(O)O)[C@@H](O)[C@H]1O` [ATP] was tested. Which “growth in high levels of ATP” value ([7]; cells not previously selected in drug) did it give?
A: able to grow

Q: What about the “growth in high levels of ATP” value ([7]; cells previously grown in cycloheximide, not overexpressing AtPGP-1) of the same compound?
A: not able to grow

Q: How did the germination rate [4] turn out when `C[C@@H]1C[C@@H]([C@H](O)CC2CC(=O)NC(=O)C2)C(=O)[C@@H](C)C1` [cycloheximide] was run?
A: 50%

Q: What about the growth in drug ([3]; cycloheximide 500 ng/ml) of the same compound?
A: did not grow

Q: And the growth in drug [8]?
A: did grow

Q: What about the germination rate [5] of the same compound?
A: 2%
